Measured values published in patent US20240350578A1, “FUNCTIONAL OUTCOMES AFTER SPINAL CORD INJURY” (priority 2023, published 2024).

Legend:
mixed neuronal culture = test: Neuronal LDH release from a mixed neuronal culture following incubation with NMDA; type: cell-based; settings: peptide at 1 μM; mixed neuronal culture incubated with NMDA
Source text: (§1) Despite the neuroprotective effectiveness of early generation apoE-mimetic peptides based on the primary structure of the apoE receptor-binding region, several factors have limited clinical translation. Among those factors are peptide size and production cost. In order to address these barriers, we developed a library of smaller, 5-amino acid peptides by linearizing the polar face of the receptor-binding region, which preserves peptide function without maintaining any primary sequence homology with the apoE receptor-binding region itself. Overall, 13 peptides were screened using in vitro assays of neuroinflammation and neuroprotection from excitotoxicity. […] The resulting smaller, 5-amino acid peptide increases the translational and therapeutic potential by reducing production cost, improving pharmacokinetics, and increasing CNS bioavailability. A comparison of the neuroprotective activity of CN-105 with VR-53, another pentapeptide from this library, as measured by LPS-induced inflammation from TNFα is shown in FIG. 1.

[1] = test system: spinal cord transection in female Sprague-Dawley rats; test: Spinal cord transection T9/T10: acute cystometry and body weight; type: in vivo
Experimental: FIG. 5, panel A is a graph showing the number of non-voiding bladder contractions during acute cystometry in urethane-anesthetized, female Sprague-Dawley rats that received spinal cord transection between the 9th and 10th thoracic vertebrae, followed by CN-105 (2 mg/kg; sci_cn105) or 0.9% saline (sci_saline) treatments at 30 minutes and 3 hours post injury by IV injection, and then every 24 hours by IP for 7 days.
FIG. 5, panel B is a graph showing the bladder capacity measured from a single-fill cystometric trial in urethane-anesthetized, female Sprague-Dawley rats that received spinal cord transection between the 9th and 10th thoracic vertebrae. Three baseline measurements were taken, and then three measurements were taken after administration of CN-105 (2 mg/kg; cn105).
We conducted terminal acute experiments in urethane-anesthetized, female Sprague-Dawley rats to quantify the chronic and acute effects of CN-105 on urodynamic function. Rats (n=6) received spinal cord transection (TX) at T9/T10 followed by CN-105 (2.0 mg/kg) or 0.9% saline treatment at 30 min and 3 hours (IV), then every 24 hours (IP) for 7 days post-injury. Collection of body weight and void volumes occurred 2-3 times daily during manual bladder expression throughout the duration of the study. For acute cystometry experiments, we placed a catheter into the bladder dome to measure pressure and an electromyography paddle on the EUS to measure muscle activity. During a single-fill cystometric trial, we infused the bladder with saline at a constant rate (54-84 ml/hr) until a distension-evoked bladder contraction voided urine or until overflow incontinence occurred. Following 3 baseline cystometric trials, we performed 3 trials after administration of CN-105.

mixed glial culture = test: LPS-induced TNFα release from mixed glia cells in vitro; type: cell-based
Source text: FIG. 1 is a graph showing the LPS-induced TNFα release from mixed glia cells in vitro from treatments with the CN-105 peptide and a comparison pentapeptide, VR-53.
as §1

[2] = biological target: α7 nicotinic acetylcholine receptors (Homo sapiens, UniProt P36544); settings: cited from earlier work
[3] = Pharmacokinetic evaluation of radiolabeled CN-105 in uninjured male CD-1 mice; type: in vivo; settings: single intravenous bolus 1.98 mg/kg
Experimental: FIG. 2, panel A is a graph showing the concentration of CN-105 in uninjured, male CD-1 mice after a single intravenous injection bolus dose of 1.98 mg/kg. FIG. 2, panel B is a graph showing the CN-105 retention in the brain and the spinal cord, calculated by dividing the concentration at 24 hours (C24) by the peak concentration (Cmax), 24 hours after a single intravenous injection bolus dose of 1.98 mg/kg. FIG. 2, panel C is a graph showing the total CN-105 exposure in the brain and the spinal cord, calculated using the area under the curve (AUC), for 48 hours after a single intravenous injection bolus dose of 1.98 mg/kg.
In collaboration with XenoBiotic Laboratories, Inc., we conducted a pharmacokinetic evaluation of radiolabled CN-105 in uninjured, male CD-1 mice. After a single intravenous bolus dose of CN-105 (1.98 mg/kg), peak concentration of CN-105 in the spinal cord occurred 30 minutes post injection (FIG. 2, panel A).
However, tissue retention of CN-105 at 24 hours (FIG. 2, panel B) and total exposure (FIG. 2, panel C) to CN-105 over 48 hours post injection was greatest in the spinal cord. Tissue retention at 24 hours post injection was quantified by dividing the CN-105 concentration at 24 hours (C24) by the peak CN-105 concentration (Cmax) and multiplying by 100.
The total exposure to CN-105 was calculated using the area under the curve (AUC) from the time of injection to 48 hours post injection (AUC0-48) and is expressed in nanogram equivalents*hour per gram. […] Increased CN-105 access to the spinal cord is consistent with greater passive permeability in the intact spinal cord (Winkler et al., 2012).

severe, contusive SCI = test: Severe, contusive SCI: GFAP staining at injury epicenter; type: in vivo, mouse; settings: 0.05 mg/kg before and after SCI; 14 days after severe SCI
Experimental: FIG. 4 is a series of microscopy images showing the spinal cord sections at the injury epicenter stained for glial fibrillary acidic protein (GFAP) in a mouse after a severe SCI.
In a separate experiment, we delivered CN-105 (0.05 mg/kg) before and after SCI. To determine the effect of CN-105 treatment on neuropathology 14 days after severe SCI, we stained spinal cord sections at the injury epicenter for glial fibrillary acidic protein (GFAP; FIG. 4), which labels astrocytes, including those that form the glial scar around the injury. In this approach, spared tissue can be differentiated from the lesion core by the presence (spared tissue) or absence (lesion core) of GFAP staining (Duncan et al., 2018).

[4] = test system: moderate, contusive SCI in adult, female C57BL/6J mice; test: Moderate, contusive SCI at T9: Basso Mouse Scale and von Frey hair test; type: in vivo
Experimental: FIG. 3 are graphs showing the locomotor performance recovery (via Basso Mouse Scale) in adult, female C57BL/6J mice after a moderate, incomplete SCI at the 9th thoracic vertebrae. The mice were subsequently treated with either 2.0 mg/kg CN-105 or a control vehicle intravenously 30 minutes post-injury, and then intraperitoneally (IP) at 3 hours, 6 hours, and then every 24 hours post-injury for three days. FIG. 3, panel A is a graph showing the number of consistent, weight-supported hindlimb steps at 21-days post-injury; and FIG. 3, panel B is a graph showing the number of animals capable of performing coordinated locomotion at 21-days post-injury.
To determine whether CN-105 can improve sensorimotor outcomes following a moderate, incomplete SCI, we conducted experiments in adult, female C57BL/6J mice. Here, we delivered CN-105 (2.0 mg/kg) or Vehicle at 30 minutes (intravenous, IV), at 3 hours and 6 hours (intraperitoneal, IP), then every 24 hours (IP) for three days following a moderate, contusive SCI at the level of the 9th thoracic vertebrae (T9). We tracked locomotor recovery using the Basso Mouse Scale (BMS) (Basso et al., 2006) and assessed for neuropathic pain or allodynia using the von Frey hair test.

acquired brain injury = settings: in vivo; cited from earlier work
[5] = SCI rats, 2.0 mg/kg chronic treatment, cystometry

α7 nicotinic acetylcholine receptors, sequence (P36544 23-502): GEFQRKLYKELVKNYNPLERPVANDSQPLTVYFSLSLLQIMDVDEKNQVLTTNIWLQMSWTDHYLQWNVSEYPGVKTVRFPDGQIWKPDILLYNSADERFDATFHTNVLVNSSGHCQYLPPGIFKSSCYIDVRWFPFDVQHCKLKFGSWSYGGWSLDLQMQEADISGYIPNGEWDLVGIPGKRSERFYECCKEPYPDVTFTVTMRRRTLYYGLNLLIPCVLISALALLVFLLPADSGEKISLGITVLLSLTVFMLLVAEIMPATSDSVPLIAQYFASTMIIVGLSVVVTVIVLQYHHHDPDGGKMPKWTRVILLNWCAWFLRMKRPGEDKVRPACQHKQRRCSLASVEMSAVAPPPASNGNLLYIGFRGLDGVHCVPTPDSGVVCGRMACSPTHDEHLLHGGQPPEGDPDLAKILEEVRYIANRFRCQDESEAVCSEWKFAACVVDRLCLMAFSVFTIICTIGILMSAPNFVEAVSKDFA

## Ac-RHKKL-NH2 [RL-S-1]
Mixed neuronal culture
  Neuroprotection (reduction in neuronal LDH release): −2.85%

## Ac-VSKKR-NH2 [VR-54]
Mixed neuronal culture
  Neuroprotection (reduction in neuronal LDH release): −15.91%

## Ac-VSRRR-NH2 [CN-105]
[1]; 2.0 mg/kg IV 30 min and 3 h, then IP every 24 h for 7 days
  Post-injury weight loss: prevented post-injury weight loss
[1]; [5]
  Bladder capacity (BC): 11.83 ± 2.00 mL
  Non-voiding contractions (NVCs): 8.0±2.48
  Voiding efficiency (VE): 3.31±1.83%
[1]; acute dosing 2 mg/kg in chronically treated rats, p<0.05
  Bladder capacity after acute dosing: may decrease bladder capacities
[1]; extended treatment, p<0.05
  Neurogenic detrusor overactivity (NDO), post-hoc analysis: may decrease NDO
Mixed glial culture
  Suppression of LPS-induced inflammation (TNFα): suppress LPS-induced inflammation
[2]
  Binding to α7 nicotinic acetylcholine receptors: binds
[3]; 0-48 hours
  Total exposure (AUC0-48), spinal cord vs brain: spinal cord had greater total exposure to CN-105 than the brain
[3]; 24 hours post injection
  Tissue retention at 24 hours (C24/Cmax x 100), spinal cord vs brain: spinal cord retained a higher percentage of CN-105 than the brain
[3]; spinal cord
  Time of peak concentration in the spinal cord: 30 min
Mixed neuronal culture
  Neuroprotection (reduction in neuronal LDH release): 19.14%
severe, contusive SCI
  Lesion size and tissue damage (GFAP staining): appeared to reduce the lesion size and tissue damage
[4]; 2.0 mg/kg
  Sensory function / allodynia (von Frey hair test): trend toward improved sensory function
[4]; 2.0 mg/kg IV 30 min, IP 3 h, 6 h, then every 24 h for three days, 21 days after injury, p<0.05
  Animals capable of consistently taking weight-supported steps (BMS): significantly more animals
[4]; 2.0 mg/kg, 21 days after injury, p<0.05
  Animals performing coordinated locomotion (BMS): significantly more animals
Acquired brain injury
  Brain exposure relative to previous peptides: up to five times higher than previous peptides
  Histological and behavioral outcomes following acquired brain injury: improves both histological and behavioral outcomes

## Ac-VSRKR-NH2 [VR-52]
Mixed neuronal culture
  Neuroprotection (reduction in neuronal LDH release): 12.63%

## Ac-ASHLRKLRKRLL-NH2 [AL-10-1]
Mixed neuronal culture
  Neuroprotection (reduction in neuronal LDH release): −6.21%

## Ac-RHKRR-NH2 [RR-S-1]
Mixed neuronal culture
  Neuroprotection (reduction in neuronal LDH release): 7.5%

## Ac-VARRL-NH2 [VL-S-3]
Mixed neuronal culture
  Neuroprotection (reduction in neuronal LDH release): 11.50%

## Ac-VARKL-NH2 [VL-S-1]
Mixed neuronal culture
  Neuroprotection (reduction in neuronal LDH release): 24.48%

## Ac-RSKRR-NH2 [RR-S-2]
Mixed neuronal culture
  Neuroprotection (reduction in neuronal LDH release): 0.08%

## Ac-RSKKL-NH2 [RL-S-3]
Mixed neuronal culture
  Neuroprotection (reduction in neuronal LDH release): −20.80%

## Ac-VSKRR-NH2 [VR-53]
Mixed neuronal culture
  Neuroprotection (reduction in neuronal LDH release): 7.03%

## Ac-RARRL-NH2 [RL-S-2]
Mixed neuronal culture
  Neuroprotection (reduction in neuronal LDH release): −5.23%
